For data set [1] the following is noted: oral dietary supplement; cited from earlier work.
For data set [2] the following is noted: saturated aqueous solution, 20° C.; cited from earlier work.
The nature of data set [3]: Solubility in water / saturated aqueous solution.
Description: The term “soluble” as used herein means capable of being dissolved, going into a liquid state from a solid state.
Data set [4] in a line: Storage stability of the powders. The format is physicochemical. The note with it: shelf life.

In the case of `O=C([O-])[O-].[Ca+2]` [Calcium carbonate], the “bioavailability / absorption of calcium (in words)” value in data set [1] is listed as “relatively poor”.
As for `O.O.O.O.O=C([O-])CC(O)(CC(=O)[O-])C(=O)[O-].O=C([O-])CC(O)(CC(=O)[O-])C(=O)[O-].[Ca+2].[Ca+2].[Ca+2]` [Calcium citrate tetrahydrate], the “bioavailability / absorption of calcium (in words)” value in data set [1] is reported as “better absorbed than the carbonate or phosphates of calcium”.
With `CC(O)C(=O)[O-].CC(O)C(=O)[O-].O.O.O.O.O.[Ca+2]` (stereo not shown) [calcium lactate pentahydrate, 2-hydroxypropanoic acid calcium salt pentahydrate], the “bioavailability / absorption of calcium (in words)” value in data set [1] is given as “good”.
With `O.O.O=P([O-])([O-])O.[Ca+2]` [dibasic calcium phosphate dihydrate], the “bioavailability / absorption of calcium (in words)” value in data set [1] is “poor”.
Consider `O=P([O-])([O-])[O-].O=P([O-])([O-])[O-].[Ca+2].[Ca+2].[Ca+2]` [tribasic calcium phosphate], for which, in data set [1], the “bioavailability / absorption of calcium (in words)” value was “poor”.
As for “d-gluconic acid calcium salt [Calcium gluconate]”, the “pH of saturated solution” value in data set [2] is given as 6-7.
“magnesium 3-hydroxy-3-methylbutyrate [MgHMB]”: the “concentration of saturated aqueous solution” value in data set [3] (20° C.) stood at 32 % by weight. In addition, in data set [3] (broad range of pH values), the “solubility over pH range (in words)” value is “highly soluble”. Further, in data set [3] (pure salt dissolved in water), the “pH of aqueous solution (in words)” value is listed as “nearly neutral or slightly alkaline”. For the same molecule, the “stability of the powder (in words)” value in data set [4] was “stable powders with long shelf lives”.

Source of the values: patent publication US20040220266A1, “Composition and method for enhancing the bioavailability of calcium and magnesium in dietary supplements and food additives” (priority 2002, published 2004).
